Reference: patent US11174216B2, “Lipids that increase insulin sensitivity and methods of using the same” (Beth Israel Deaconess Medical Center, Inc., priority 2012, dated 2021)

Tests used:
Human islets = assay: Insulin release from primary human islet cells; assay type: cell-based; details: 45 min
Description: Two human donors provided cells used in these studies. Donor 1 was a person, 5′0″, 157 lbs, with a BMI of 30.5, HbA1C was 5.8, who died from a stroke, but it was witnessed and they had no downtime. Islets were 80% pure and 95% viable. After arrival, islets were incubated overnight in human islet media before stimulation with glucose in presence and absence of 5-PAHSA (lipid A-5). Note 1 IU of Human Insulin=6 nmol=34.8 μg Insulin.
Human islets were divided into ten groups [100 islets per condition]
A] Low glucose [2.5 mM]; B] High glucose [20.0 mM]; C] Low glucose [2.5 mM]+2.5 μL/mL Methanol; D] High glucose [20.0 mM]+2.5 μL/mL Methanol; E] Low glucose+20 μM Lipid A-5; F] High glucose+20 μM Lipid A-5; G] Low glucose+50 μM Lipid A-5; H] High glucose+50 μM Lipid A-5.
Islets were cultured overnight in Human Islet media and next day incubated with KRB buffer for 4 h prior to glucose stimulation.
Following KRB incubation, islets were stimulated with glucose [2.5 mM & 20.0 mM] in the presence and absence of Lipid A-5 [20 & 50 μM] for 45 min
At the end of glucose stimulation the amount of insulin released [μ IU/mL] into the media was measured using Human Insulin ELISA kit. And the insulin content from the islets were extracted to express insulin released into the media as μ IU/mL/islet content. […]

isolated rat islets = assay: Insulin release studies in rat islets; assay type: cell-based; details: 25 mM glucose in the media
Description: Ins1 cells (FIGS. 31A and 31B) or primary rat islet cells (FIG. 32A and FIG. 32B) were seeded in 24 well-plates [˜10^6 cells/well]. At confluence, cells were incubated with Low Serum [2.5%] and Low Glucose [2.5 mM] media for 12 hours. Next, cells were incubated with KRB buffer for 1 h and stimulated with glucose in the presence of 5-PAHSA (FIGS. 31a and 31B) or 9-PAHSA (FIG. 31B) for 45 min in KRB. At the end of the stimulation, 100 μL of media was collected and 10 μL was used to quantitate the amount of insulin released by ELISA. Treatment Conditions for FIGS. 31A, 31B and 32B were: • 5-PAHSA or 9-PAHSA [Stock]=20.0 mM [10.76 mg/mL Methanol] • A] 1 uM=0.3 uL/6 mL [Amount of methanol/mL=0.05 uL] • B] 5 uM=1.5 uL/6 mL [Amount of methanol/mL=0.25 uL] • C] 10 uM=3.0 uL/6 mL [Amount of methanol/mL=0.50 uL] • D] 20 uM=6.0 uL/6 mL [Amount of methanol/mL=1.00 uL] […]
Isolated rat islets were cultured overnight in RPMI 1640 medium containing 2.5 mM glucose and 2.5% fetal bovine serum supplemented with 100 IU/ml penicillin and 100 IU/ml streptomycin, 1 mM sodium pyruvate, and 10 mM HEPES (pH 7.4). […] At the end of the stimulation supernatant was collected and insulin released into the medium was quantified by ELISA as per manufacturer's protocol. The islets were lysed and protein content was measured and the amount of insulin released into the media was quantitated as ng/mL/μg of protein.

[1] = test system: FAHFA hydrolysis activity in liver lysate
[2] = test system: FAHFA hydrolysis activity in pancreas membrane lysate; assay: FAHFA hydrolysis activity assay, pancreas membrane lysate; details: 1 mg/ml protein, 100 uM 9-PAHSA, 30 min, room temperature

| SMILES | Glucose Stimulated Insulin Secretion (Human islets; human islets from Donor 1, 20 and 50 uM) | Glucose Stimulated Insulin Secretion (Human islets; human islets from Donor 2, 20 uM) | glucose-stimulated insulin secretion (isolated rat islets) | hydrolysis of 9-PAHSA to 9-HSA [1] | FAHFA hydrolysis activity, pancreas membrane versus liver membrane [2] |
| --- | --- | --- | --- | --- | --- |
| CCCCCCCCCCCCCCCC(=O)OC(CCCCCCCCCCCCC)CCCC(=O)O (centres unmarked) [5-PAHSA] | induces Glucose Stimulated Insulin Secretion | induces Glucose Stimulated Insulin Secretion | potentiates glucose-stimulated insulin secretion |  |  |
| CCCCCCCCCCCCCCCC(=O)OC(CCCCCCCCC)CCCCCCCC(=O)O (centres unmarked) [9-PAHSA, palmitoyl-9-hydroxystearic acid] |  |  |  | Substantial 9-HSA production | ~10 fold |
